Source: patent US10925969B2, “Anti-BCMA polypeptides and proteins” (priority 2015, dated 2021)

Tests used:
U266 cell line = test: Cell killing by trypan blue staining, cells seeded at 10^6 per ml; type: cell-based; settings: U266, agent added D-0 (LMB38 100 ng/ml), washed after D-3
Protocol: (§1) The BCMA-positive H929, U266, and RPMI cell lines were seeded at 10^6 per ml in 3 ml volume. LMB38 (BM24-Fab-LRggs) was added at 100 ng/ml at Day 0 (D-0). Cells (10 μl) were taken on different days and counted after trypan blue staining. After D-3, cells were washed and plated with media containing no toxin. For the 6 hour group, cells were washed after 6 h and plated in regular media containing no toxin. Cyclohexamide (Chxm) and 205 were used as positive controls; SS1-Fab-immunotoxin targeting mesothelin was used as a negative control (Ctrl).

H929 cell line = test: as above; type: cell-based; settings: H929, agent added D-0 (LMB38 100 ng/ml), washed after D-3
Protocol: as §1

RPMI cell line = test: as above; type: cell-based; settings: agent added D-0 (LMB38 100 ng/ml)
Protocol: as §1

[1] = system: TNFRs (BCMA, TACI or BAFFR); test: Cross-reactivity with TNFR superfamily members by FACS (transfected 293T cells) and ELISA (TNFR-rFc); type: binding, human; settings: mAb at 4 μg/ml
Protocol: For transfection experiments, 293T cells were seeded in 100 mm dishes (BD Biosciences, Bedford, Mass.) and grown at the subconfluent densities. pcDNA6/BCMA, pcDNA/TACI, or pcDNA6/BAFFR (6 μs) were transfected per dish by LIPOFECTAMINE LX and PLUS reagent according to the manufacturer's instructions. After 24 h, the transiently transfected cells were harvested and used for FACS screening. Cells (1-5×10^5) were incubated with serial dilution of hybridoma supernatants in FACS buffer (PBS containing 5% FBS and 0.1% sodium azide) for 1 h on ice. After washing twice with FACS buffer, the cells were incubated with 1:200 dilution of R-Phycoerythrin (PE)-labelled goat anti-mouse IgG F(ab′)2 (Jackson Immuno Research Laboratories, West Grove, Pa.) for 30 min. After washing twice, the cells were resuspended in 180 μl FACS buffer containing 10 nM TO-PRO-3 stain (Invitrogen), and the fluorescence associated with the live cells was measured using a BD ACCURI C6 flow cytometer (BD Biosciences). Positive hybridoma clones were transferred to 24-well pates. To exclude the false positive in the first screening, 24-well culture supernatants were re-assayed 2 days after transfer. […] The isotype of established monoclonal antibodies (MAb) was determined by a mouse MAb isotyping reagents (Sigma-Aldrich). Immunoglobulin concentrations in the culture supernatants were determined by a sandwich ELISA. […]

BCMA-rFc protein = target: T1, BCMA-rFc protein (Homo sapiens, UniProt Q02223); test: Binding kinetics of MAbs by bio-layer interferometry (BLITZ); settings: for ka / kd: BCMA-rFc immobilized sensor
T1 construct: the extracellular domain of human BCMA (residues 1-54) fused to the Fc region; made in house
T1 sequence (Q02223 1-54): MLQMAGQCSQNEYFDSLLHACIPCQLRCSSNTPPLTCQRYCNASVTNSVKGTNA
Protocol: The binding kinetics of MAbs to BCMA were measured by bio-layer interferometry using a BLITZ (ForteBio, Menlo Park, Calif.) instrument. According to the manufacturer's instructions, BCMA-rFc were immobilized on amine-reactive second-generation biosensors by amine coupling following the activation of the sensor surface with N-hydroxysuccinimide (NHS) and N-ethyl-N-(3-dimethylaminopropyl) carbodiimide hydrochloride (EDC). Serial dilutions of MAbs were run across sensor surface at five different concentration in PBS (pH 7.4). The sensorgram data set was globally fit using the built-in BLITZ software to determine association rate constant (Ka), dissociation rate constant (Kd), and affinity constant (KD).
The binding kinetics of these two anti-BCMA mAbs against BCMA-rFc protein were measured by bio-layer interferometry. Serial dilutions of anti-BCMA MAbs (20, 10, 5, 2.5, 1.25 μg/ml) were applied to the BCMA-rFc immobilized sensor and detected. Real-time biomolecular interaction analyses were performed with BLITZ software. […] The dissociation constants (KD) of both mAbs were less than 1×10^−12 (exceeded the detection limits).

[2] = target: T2, BCMA-expressing 293T cells (Homo sapiens, UniProt Q02223); test: FACS screening of binding to cell-surface BCMA
T2 construct: One vector encoded the full-length human BCMA; expressed in transfected cells; host or cells: 293T cells transiently transfected with pcDNA6/BCMA
T2 sequence (Q02223 1-184): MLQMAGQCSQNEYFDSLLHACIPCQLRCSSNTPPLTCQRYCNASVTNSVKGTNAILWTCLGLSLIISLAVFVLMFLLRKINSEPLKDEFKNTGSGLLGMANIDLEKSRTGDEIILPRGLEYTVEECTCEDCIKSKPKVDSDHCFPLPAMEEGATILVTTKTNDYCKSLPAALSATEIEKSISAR
Protocol: For transfection experiments, 293T cells were seeded in 100 mm dishes (BD Biosciences, Bedford, Mass.) and grown at the subconfluent densities. pcDNA6/BCMA, pcDNA/TACI, or pcDNA6/BAFFR (6 μs) were transfected per dish by LIPOFECTAMINE LX and PLUS reagent according to the manufacturer's instructions. After 24 h, the transiently transfected cells were harvested and used for FACS screening. Cells (1-5×10^5) were incubated with serial dilution of hybridoma supernatants in FACS buffer (PBS containing 5% FBS and 0.1% sodium azide) for 1 h on ice. […] After washing twice, the cells were resuspended in 180 μl FACS buffer containing 10 nM TO-PRO-3 stain (Invitrogen), and the fluorescence associated with the live cells was measured using a BD ACCURI C6 flow cytometer (BD Biosciences). […] The isotype of established monoclonal antibodies (MAb) was determined by a mouse MAb isotyping reagents (Sigma-Aldrich). Immunoglobulin concentrations in the culture supernatants were determined by a sandwich ELISA.
Mice were intraperitoneally immunized with BCMA-rFc fusion protein in adjuvant for the first immunization, and subsequently immunized 5 times with BCMA-rFc without adjuvant. High antibody titers (1:10,000) against the BCMA-expressing 293T cells were detected in the sera from mice immunized with BCMA-rFc. […]

[3] = target: T3, BCMA molecules on the surface of H929 cells (Homo sapiens, UniProt Q02223); test: Quantification of BCMA molecules on cell surface by flow cytometry with labeled LMB70; type: binding; settings: 1h on ice
T3 construct: endogenous in cells; host or cells: H929 cells
T3 sequence (Q02223 1-184): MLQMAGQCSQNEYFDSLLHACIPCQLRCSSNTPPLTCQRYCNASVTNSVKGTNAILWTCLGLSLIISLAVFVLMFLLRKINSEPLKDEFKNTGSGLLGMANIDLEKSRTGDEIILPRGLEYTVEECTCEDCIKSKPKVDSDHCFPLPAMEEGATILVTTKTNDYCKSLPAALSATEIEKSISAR
Protocol: To quantify the BCMA molecules on the surface of H929 cells, H929 cells were incubated with various concentrations of labeled LMB70 for 1h on ice in FLOW buffer. The cells were washed and analyzed by flow cytometry, together with AF647 quantification beads.

H929 cells = test: WST-8 assay of AF647-labeled and unlabeled LMB70; type: cell-based; settings: for IC50 (WST-8): in ng/mL
Protocol: (§2) LMB70 was labeled with AF647 for measurement of uptake in vivo. LMB70 was labeled twice with AF647 using an AF647 labeling kit (Life Technologies). Labeling efficacy and activity were measured by WST-8 assay and affinity measurement.

BCMA = target: T4, BCMA (Homo sapiens, UniProt Q02223); test: Affinity measurement of AF647-labeled and unlabeled LMB70; type: binding; settings: after the first labeling
T4 sequence (Q02223 1-184): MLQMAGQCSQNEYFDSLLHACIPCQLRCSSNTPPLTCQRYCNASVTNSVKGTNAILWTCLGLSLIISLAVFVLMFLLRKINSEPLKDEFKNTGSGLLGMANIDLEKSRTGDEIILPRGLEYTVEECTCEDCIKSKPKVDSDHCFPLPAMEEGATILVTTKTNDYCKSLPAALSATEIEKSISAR
Protocol: as §2

In the case of C[C@@H]1C[C@@H]([C@H](O)CC2CC(=O)NC(=O)C2)C(=O)[C@@H](C)C1 [Chxm, Cyclohexamide], the Percent dead (U266 cell line; D-0) is reported as 7%, the Percent dead (U266 cell line; D-1) is reported as 25% and the Percent dead (U266 cell line; D-2) is reported as 50%. For the same molecule, the Percent dead (U266 cell line; D-3) was 80%, the Percent dead (U266 cell line; D-6) was 100% and the Percent dead (H929 cell line; D-0) was 9%. It also gave a Percent dead (H929 cell line; D-1) of 70%, a Percent dead (H929 cell line; D-2) of 92% and a Percent dead (H929 cell line; D-3) of 100%. It also gave a Percent dead (H929 cell line; D-6) of 100%, a Percent dead (RPMI cell line; washed after D-3, D-0) of 15% and a Percent dead (RPMI cell line; washed after D-3, D-1) of 75%. For the same molecule, the Percent dead (RPMI cell line; washed after D-3, D-2) was 100%, the Percent dead (RPMI cell line; washed after D-3, D-3) was 100% and the Percent dead (RPMI cell line; washed after D-3, D-6) was 100%.

B1: BM306: anti-BCMA mAb, IgG1 isotype; VH SEQ ID NO: 15, VL SEQ ID NO: 16 (antibody, V domains shown)
VH: MEVQLQQSGPELVKPGASVKISCKTSGYTFTEYTINWVKQSHGKSLEWIGDIYPDNYNIRYNQKFKGKATLTVDKSSSTAYMELRSLSSEDSAIYYCANHDFFVFWGQGTLVTVSAAK
VL: MDIQMTQATSSLSASLGDRVTINCRTSQDISNHLNWYQQKPDGTVKLLIYYTSRLQSGVPSRFSGSGSGTDYSLTISNLEQEDIGTYFCHQGNTLPPTFGGGTKLEIKR
modifications: IgG1
With B1 the “cross-reactivity with other TNFR superfamily members” value [1] was “specific to BCMA”, the “association rate constant (Ka) compared to BM24” value (BCMA-rFc protein) was “high” and the “ka” value (BCMA-rFc protein) was 415000 M⁻¹ s⁻¹. For the same molecule, the “kd” value (BCMA-rFc protein) was less than 1e-07 s⁻¹ and the “binding to BCMA antigen on the cell surface” value [2] was “high affinity and specificity”.

B2: labeled LMB70: LMB70 labeled with AF647 using an AF647 labeling kit (conjugate)
VH: EVQLQQSGPELVKPGASVKISCKTSGYTFTEYTINWVKQSHGKSLEWIGDIYPDNYNIRYNQKFKGKATLTVDKSSSTAYMELRSLSSEDSAIYYCANHDFFVFWGQGTLVTVSA
VL: DIQMTQATSSLSASLGDRVTINCRTSQDISNHLNWYQQKPDGTVKLLIYYTSRLQSGVPSRFSGSGSGTDYSLTISNLEQEDIGTYFCHQGNTLPPTFGGGTKLEIK
modifications: left off: another chain or arm of the molecule; a dimerising Fc or GST; small tags and cut ends
notes: LMB70 labeled with AF647 using an AF647 labeling kit
With B2 the Bmax ([3]; first labeling) was 150,000 molecules per cell, the Bmax ([3]; second labeling) was 230,000 molecules per cell and the “IC50 (WST-8)” value (H929 cells; after the first labeling) was 6.082. The “IC50 (WST-8)” value (H929 cells; after the second labeling) was 10.69, the “fold less active than the unlabeled toxins” value (H929 cells; labeled versus unlabeled) was “about 4 fold” and the “Bmax (affinity measurement)” value (BCMA) was 1131.

B3: BM24: anti-BCMA mAb, IgG1 isotype; VH SEQ ID NO: 13, VL SEQ ID NO: 14 (antibody, V domains shown)
VH: MEVQLQQSGPELVKPGASVKMSCKASGNTLTNYVIHWMKQMPGQGLDWIGYILPYNDLTKYNEKFTGKATLTSDKSSSSAYMELNSLTSEDSAVYYCTRWDWDGFFDPWGQGTTLTVSSAS
VL: MDIVMTQSPLSLPVSLGDQASISCRSTQSLVHSNGNTHLHWYLQRPGQSPKLLIYSVSNRFSEVPDRFSASGSGTDFTLKISRVEAEDLGVYFCSQTSHIPYTFGGGTKLEIKR
modifications: IgG1
B3 was tested, and the “cross-reactivity with other TNFR superfamily members” value [1] was “specific to BCMA”, the “ka” value (BCMA-rFc protein) was 297000 M⁻¹ s⁻¹ and the “kd” value (BCMA-rFc protein) was less than 1e-07 s⁻¹. For the same molecule, the “binding to BCMA antigen on the cell surface” value [2] was “high affinity and specificity”.
